In assay [1] the test system is M. tuberculosis H37Rv. The experiment in a line: M. tuberculosis H37Rv single-dose primary screen. It is filed as cell-based, Mycobacterium tuberculosis. Particulars: 10 μg/mL.
Assay [2] relates to M. tuberculosis H37Rv. As to conditions: cited from earlier work.
Assay [3] has as its system M. tuberculosis H37Rv. It is filed as cell-based. As to conditions: Mycobacterium tuberculosis; for MIC: read-out: approximate MIC of control drug.

Structures can show the parent of a compound that is named as a salt. Some results are limits rather than exact numbers.

On to `Cc1cccc(Nc2nc(-c3ccccc3)cs2)n1` [deaza analog of 1a, 4-phenyl-[2-(6-methyl-2-pyridyl)amino]thiazole], for which the “% Inhibition, single-dose screen” value in assay [1] was determined as 22%.

Consider `O=C1C(O)=C([C@H]2CC[C@H](c3ccc(Cl)cc3)CC2)C(=O)c2ccccc21` [Atovaquone], for which the “activity against M. tuberculosis (in words)” value in assay [2] (Prestwick Library data) is “modest activity”. Regarding `NCC[C@H](O)C(=O)N[C@@H]1C[C@H](N)[C@@H](O[C@H]2O[C@H](CN)[C@@H](O)[C@H](O)[C@H]2O)[C@H](O)[C@H]1O[C@H]1O[C@H](CO)[C@@H](O)[C@H](N)[C@H]1O` [amikacin, Amikacin sulfate], the MIC in assay [3] was around 0.13 mg/L. In addition, the IC50 in assay [3] (run over the course of a five month period) was found to be 0.09 ± 0.02 mg/L. As to `CCc1cc(C(N)=S)ccn1` [ethionamide, 2-ethylthioisonicotinamide], in assay [2] (in the TAACF screens), the “TB IC90” value is above 100 mg/L. Turning to `CC[C@@H](CO)NCCN[C@@H](CC)CO` [ethambutol], the MIC in assay [3] was around 0.5 mg/L.

As a reminder, the MIC is the lowest concentration found to suppress growth. The term IC50 denotes the concentration at which inhibition is half-maximal. A high value points to lower potency.

Source of the values: paper PMC3255569 (Tuberculosis (Edinburgh, Scotland), 2009).
